Measurements as given in patent US20040127405A1, “Methods for treating lung infections and lung tumors and for treating and preventing lung metastases” (priority 2000, published 2004).
Where two headings read alike, the source gives them in different places. Ends that are not written are not given here. * marks the point of attachment. S‑(2,3-bisacyloxypropyl) = S-(2,3-bisacyloxypropyl) group on the cysteine sulfur (lipopeptide), acyl preferably palmitoyl; X1 = S‑(2,3-bispalmitoyloxy-(2R)-propyl)Cys, CCCCCCCCCCCCCCCC(=O)OC[C@H](CSC[C@H](N)C(=O)*)OC(=O)CCCCCCCCCCCCCCC

Experiments:
MADB106 tumor cells = assay: Lung metastasis after intravenous MADB106 tumor cell inoculation in F344 rats; conditions: intratracheal
lungs of rats = assay: Leukocyte counts in bronchoalveolar lavage (BAL) after intratracheal instillation in rats; assay type: in vivo, rat
Procedure: In the majority of experiments, the biologically active, chemically synthesized 2-R-MALP-2 stereoisomer, corresponding to the natural compound, was used for intracheal administration. […] Both compounds were synthesized and purified as described in Example 1, and kept as 1 mg/ml stock solutions in a 33 vol. % 2-propanol, 67 vol. % water mixture. Stock solutions were diluted with pyrogen-free 0.9 wt. % sodium chloride solutions (Braun, Melsungen, Germany) shortly before application. Solvent controls consisted of corresponding mixtures without MALP-2.
Intratracheal administration of the compounds was performed under short ether anesthesia. During this process, rats were suspended in a hanging position by a rubber band fixed to the rats' upper jaw teeth. After intubation of the trachea via the oral cavity, a total volume of 500 μl was administered. Before administration, the correct position of the tube was checked by blowing air into the lung.
The animals' lungs were lavaged 10 times with 5 ml of cold 0.9 wt. % NaCl solutions via a tracheal cannula. The lavage fluid was pooled, and an average of >90% of the volume was recovered. The bronchoalveolar (BAL) cells were processed for blood leukocytes as described herein.
The total cell numbers in the lung compartments (BAL, marginal pool, and interstitium) and in the blood were determined in a Neubauer counting chamber. Differential cell counts were assessed on cytospins. The slides were fixed in acetone for 10 min and washed with Tris-buffered saline containing 0.1 wt. % Tween 20. Cells were stained with a monoclonal antibody cocktail against lymphocytes (R73 for T cells, O×12 for B cells, and 3.2.3 for natural killer cells [all cells available from Serotec, Oxford, United Kingdom]). At least 400 cells were differentiated on each slide. In addition, neutrophils and macrophages were morphologically identified by May-Grünwald and/or Giemsa staining.
For flow cytometry, cells were transferred into microtiter plates (10^6 cells/well) and washed twice in PBS containing 1% BSA and 0.1% NaN3. The staining was performed with the appropriate primary antibodies described below. After the cells were washed twice, the secondary antibody was incubated for 30 min at 4° C. The cells were analyzed by using a FACScan flow cytometer (Becton Dickinson, Mountain View, Calif.), focusing on the lymphocyte cluster. CD8^+ T cells were identified as R73^+ O×8^+; CD4^+ T cells were identified as R73^+ O×8^−; memory CD4^+ T cells were identified as O×22^− W3/25^high; naive T cells were identified as O×22^+ W3/25^high; and monocytes were identified as O×22^− W3/25^low. Dendritic cells were identified as low-autofluorescence cells, non-T and non-B lymphocytes, and double positive for O×6 and O×62 (Lambrecht et al., 1999. Am. J. Respir. Cell. Mol. Biol. 20:1165-1174). All primary antibodies were monoclonal mouse anti-rat (Serotec). Unconjugated antibodies were detected by using phycoerythrin-conjugated secondary antibody (KPE; Dianova, Hamburg, Germany) and biotinylated primary antibodies with Red 670-streptavidin (Gibco, Gaithersburg, Md.). Isotype-matched antibodies served as a control.
To investigate whether the lipopeptide MALP-2 would be able to exert effects in the lungs, 2.5 μg of the natural stereoisomer 2R-MALP-2 was instilled into the lungs of anesthetized rats. […] Taken together, only the natural 2R stereoisomer of MALP-2 specifically affected the cell counts and distribution of subsets in the BAL.
With respect to FIG. 2, the data are means±the standard error of the mean (SEM; n=six per group).
With respect to FIG. 3, rats were sacrificed at the indicated time points after instillation of 2.5 μg of 2R-MAPL-2, and leukocytes in the bronchoalveolar lavage (BAL) were determined as described. The data are means±the SEM (n=5 per group).
With respect to FIG. 4, data are means±the SEM (n=8 per group). […]

[1] = test system: lymphatic tissue in the bronchial mucosa; assay: Lymphatic tissue in the bronchial mucosa after repeated inhalation in rats; assay type: in vivo, rat; conditions: inhalation by mask, 30 μg doses on six occasions at one-week intervals
Procedure: They were maintained under specific-pathogen-free conditions until administration of compounds in accordance with the invention.
With the aid of a mask, rats were made to inhale 30 μg doses of MALP-2 on six occasions at one-week intervals.

[2] = intraperitoneal injection of a few μg; cited from earlier work
[3] = 3 μg instilled into the trachea
[4] = 2.5 μg intratracheal, three days, P<0.01, FIG. 2
[5] = three days after application, FIG. 4

## MALP-2: macrophage-activating lipopeptide MALP-2 (an S-(2,3-bisacyloxypropyl)-cysteine peptide) isolated from Mycoplasma fermentans; stereochemistry not stated where tested (C(S‑(2,3-bisacyloxypropyl))GNNDESNISFKEK; not fully specified; also: acyl groups not given here, alternative: 2,3-diacylglyceryl-serinyl)
[3]
  adverse effect on the animals: not detectable
  food consumption, bodyweight, activity and behavior: not noteworthy
inhalation, 30 μg doses on six occasions at one-week intervals
  food consumption, bodyweight, activity and behavior: clinically not noteworthy
MADB106 tumor cells; one day after tumor cell injection, FIG. 5B
  effects on lung colonization of tumor cells: no effects
MADB106 tumor cells; simultaneously with tumor cell inoculation, counted 3 wk after inoculation, P=0.0006, FIG. 5A
  reduction of lung metastasis compared with sham-injected animals: 44%
MADB106 tumor cells; three days after tumor cell injection, FIG. 5C
  effects on lung colonization of tumor cells: no effects
Lungs of rats; 3 μg instilled into the trachea, after a few hours, lasts for a few days, FIG. 1
  number of leukocytes in the respiratory tracts and the alveolar space (BAL): increase in the number of leukocytes
[1]
  lymphatic tissue in the bronchial mucosa: increase in the lymphatic tissue
[2]
  leukocyte infiltration: brought about leukocyte infiltration

## S-[2,3-bispalmitoyloxy-(2R)-propyl]cysteinyl-GNNDESNISFKEK (X1-GNNDESNISFKEK) [2R-MALP-2]
Lungs of rats; 2.5 μg intratracheal
  time of maximal lymphocyte accumulation in the BAL: 72 h
Lungs of rats; 2.5 μg intratracheal, 24 h (0 h: [0.04±0.01]×10^6), mean±SEM
  lymphocyte numbers in the BAL: 0.6±0.1 ×10^6
Lungs of rats; 2.5 μg intratracheal, 48 h, mean±SEM
  lymphocyte numbers in the BAL: 0.9±0.1 ×10^6
Lungs of rats; 2.5 μg intratracheal, 72 h after instillation, mean±SEM
  lymphocyte numbers in the BAL (maximal accumulation): 1.2±0.1 ×10^6
Lungs of rats; 2.5 μg intratracheal, after 10 days
  all investigated cell types in the BAL: returned to control levels
Lungs of rats; 2.5 μg intratracheal, six hours after treatment, FIG. 3
  increase of total cell number in the BAL: about 10 -fold
Lungs of rats; 2.5 μg intratracheal, three days after application, vs vehicle control, FIG. 2
  total cell number in the BAL: clearly increased
Lungs of rats; [4]
  alveolar macrophages (AM) in the BAL: significant increase
  lymphocytes in the BAL: significant increase
  neutrophils in the BAL: significant increase
Lungs of rats; 2.5 μg intratracheal, FIG. 3
  time of maximal cell count in the BAL: 24 h
Lungs of rats; [5]
  increase in B cells and monocytes in the BAL: lower, but still significant
  increase in T lymphocytes, NK cells and dendritic cells in the BAL: highest relative increase
Lungs of rats; three days after application, P<0.01 vs control vehicle, FIG. 4
  increase of leukocyte subpopulations in the BAL (flow cytometry): significant
